Results published in patent US20110313156A1 (BOEHRINGER INGELHEIM INTERNATIONAL GMBH, priority 2008, published 2011).

What follows are compounds tested against T1, His6-PDK1 (aa 52-556) (Homo sapiens, UniProt O15530) (assay: PDK1 kinase assay III (with Tween 20)). Details: compound at 10 μM; PDK1 kinase assay III (values without asterisk); read-out: % CTL (residual activity of the enzyme relative to DMSO control).
T1 construct: 15 μL His6-PDK1 (aa 52-556) 3.33 ng/well); host or cells: baculovirus-infected insect cells
T1 sequence (O15530 52-556): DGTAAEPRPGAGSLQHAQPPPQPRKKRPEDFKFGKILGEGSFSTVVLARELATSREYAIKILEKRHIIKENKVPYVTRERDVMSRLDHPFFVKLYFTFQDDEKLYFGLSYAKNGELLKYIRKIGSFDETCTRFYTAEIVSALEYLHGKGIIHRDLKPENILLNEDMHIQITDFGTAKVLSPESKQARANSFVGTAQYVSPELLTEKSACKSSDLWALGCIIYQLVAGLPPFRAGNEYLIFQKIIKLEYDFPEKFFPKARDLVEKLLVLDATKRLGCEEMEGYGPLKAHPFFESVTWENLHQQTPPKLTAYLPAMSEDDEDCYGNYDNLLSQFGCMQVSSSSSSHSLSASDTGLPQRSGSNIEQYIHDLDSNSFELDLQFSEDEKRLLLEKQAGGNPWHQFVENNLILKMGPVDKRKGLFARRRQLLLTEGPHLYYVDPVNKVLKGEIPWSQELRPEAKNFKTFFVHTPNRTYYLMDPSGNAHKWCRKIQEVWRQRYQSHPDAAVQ
Type: biochemical
In short: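 Started with ATP, incubated 90 min at ambient temperature, then stopped with phosphoric acid. Asterisked values come from assay II (24 h or 5 min incubation).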

Q: For O=C(NCc1ccc(-c2cnc3[nH]ccc3c2)s1)c1cncn(Cc2ccc(F)c(F)c2)c1=O [IV-41, 1-(3,4-difluorobenzyl)-6-oxo-N-{[5-(1H-pyrrolo[2,3-b]pyridin-5-yl)thiophen-2-yl]methyl}-1,6-dihydropyrimidine-5-carboxamide], which remaining activity at 10 µM is on record?
A: 24.4%

Q: With Cc1c(C(=O)NCc2ccc(-c3cnc4[nH]ccc4c3)s2)c(=O)n(Cc2ccc(F)c(F)c2)n1C [IV-42, 2-(3,4-difluorobenzyl)-1,5-dimethyl-3-oxo-N-{[5-(1H-pyrrolo[2,3-b]pyridin-5-yl)thiophen-2-yl]methyl}-2,3-dihydro-1H-pyrazole-4-carboxamide] as the compound, how does the remaining activity at 10 µM read?
A: 27.7%

Q: With CN1CCC(Nc2ccc(Nc3ncc4cc(/C=C/CNC(=O)c5cn(C)c(=O)n(Cc6ccc(F)c(F)c6)c5=O)ccc4n3)cc2F)CC1 [IV-43, 3-(3,4-difluorobenzyl)-N-{(2E)-3-[2-({3-fluoro-4-[(1-methylpiperidin-4-yl)amino]-phenyl}amino)quinazolin-6-yl]prop-2-en-1-yl}-1-methyl-2,4-dioxo-1,2,3,4-tetrahydro-pyrimidine-5-carboxamide] as the compound, how does the remaining activity at 10 µM read?
A: 17.3%

Q: For CN1CCC(N(C)c2ccc(Nc3ncc4cc(/C=C/CNC(=O)c5cn(C)c(=O)n(Cc6ccc(F)c(F)c6)c5=O)ccc4n3)cc2)CC1 [IV-44, 3-(3,4-difluorobenzyl)-1-methyl-N-{(2E)-3-[2-({4-[methyl(1-methylpiperidin-4-yl)amino]phenyl}amino)quinazolin-6-yl]prop-2-en-1-yl}-2,4-dioxo-1,2,3,4-tetrahydro-pyrimidine-5-carboxamide], which remaining activity at 10 µM is on record?
A: 16.3%

Q: For CN1CCC(N(C)c2ccc(Nc3ncc4cc(/C=C/CNC(=O)c5cncn(Cc6ccc(F)c(F)c6)c5=O)ccc4n3)cc2)CC1 [IV-45, 1-(3,4-difluorobenzyl)-N-{(2E)-3-[2-({4-[methyl(1-methylpiperidin-4-yl)amino]-phenyl}amino)quinazolin-6-yl]prop-2-en-1-yl}-6-oxo-1,6-dihydropyrimidine-5-carboxamide], which remaining activity at 10 µM is on record?
A: 15.3%

Q: With CN1CCC(Nc2ccc(Nc3ncc4cc(/C=C/CNC(=O)c5cncn(Cc6ccc(F)c(F)c6)c5=O)ccc4n3)cc2F)CC1 [IV-46, 1-(3,4-difluorobenzyl)-N-{(2E)-3-[2-({3-fluoro-4-[(1-methylpiperidin-4-yl)amino]-phenyl}amino)quinazolin-6-yl]prop-2-en-1-yl}-6-oxo-1,6-dihydropyrimidine-5-carboxamide] as the compound, how does the remaining activity at 10 µM read?
A: 11.9%

Q: With Nc1ncc2cc(/C=C/CNC(=O)c3cncn(Cc4ccc(F)c(F)c4)c3=O)ccc2n1 [IV-48, N-[(2E)-3-(2-aminoquinazolin-6-yl)prop-2-en-1-yl]-1-(3,4-difluorobenzyl)-6-oxo-1,6-dihydropyrimidine-5-carboxamide] as the compound, how does the remaining activity at 10 µM read?
A: 24.4%

Q: For CN1CCC(N(C)c2ccc(Nc3ncc4cc(/C=C/CNC(=O)c5nccn(Cc6ccc(F)c(F)c6)c5=O)ccc4n3)cc2)CC1 [IV-49, 4-(3,4-difluorobenzyl)-N-{(2E)-3-[2-({4-[methyl(1-methylpiperidin-4-yl)amino]-phenyl}amino)quinazolin-6-yl]prop-2-en-1-yl}-3-oxo-3,4-dihydropyrazine-2-carboxamide], which remaining activity at 10 µM is on record?
A: 13.5%

Q: How did the remaining activity at 10 µM turn out when CN1CCC(Nc2ccc(Nc3ncc4cc(/C=C/CNC(=O)c5nccn(Cc6ccc(F)c(F)c6)c5=O)ccc4n3)cc2F)CC1 [IV-50, 4-(3,4-difluorobenzyl)-N-{(2E)-3-[2-({3-fluoro-4-[(1-methylpiperidin-4-yl)amino]-phenyl}amino)quinazolin-6-yl]prop-2-en-1-yl}-3-oxo-3,4-dihydropyrazine-2-carboxamide] was run?
A: 11.6%

Q: Which remaining activity at 10 µM does the source give for CN(C)Cc1ccc(Nc2ncc3cc(/C=C/CNC(=O)c4ccnn(Cc5ccc(F)c(F)c5)c4=O)ccc3n2)cc1 [IV-51, 2-(3,4-difluorobenzyl)-N-{(2E)-3-[2-({4-[(dimethylamino)methyl]phenyl}-amino)quinazolin-6-yl]prop-2-en-1-yl}-3-oxo-2,3-dihydropyridazine-4-carboxamide] here?
A: 14.5%

Q: How did the remaining activity at 10 µM turn out when CN1CCC(N(C)c2ccc(Nc3ncc4cc(/C=C/CNC(=O)c5ccnn(Cc6ccc(F)c(F)c6)c5=O)ccc4n3)cc2)CC1 [IV-52, 2-(3,4-difluorobenzyl)-N-{(2E)-3-[2-({4-[methyl(1-methylpiperidin-4-yl)amino]-phenyl}amino)quinazolin-6-yl]prop-2-en-1-yl}-3-oxo-2,3-dihydropyridazine-4-carboxamide] was run?
A: 17.2%

Q: For CCOC(=O)c1ccc(Nc2ncc3cc(/C=C/CNC(=O)c4cncn(Cc5ccc(F)c(F)c5)c4=O)ccc3n2)cc1 [IV-53, ethyl-4-({6-[(1E)-3-({[1-(3,4-difluorobenzyl)-6-oxo-1,6-dihydropyrimidin-5-yl]carbonyl}amino)prop-1-en-1-yl]quinazolin-2-yl}amino)benzoate], which remaining activity at 10 µM is on record?
A: 33.4%

Q: With Cc1c(C(=O)NC/C=C/c2ccc3nc(Nc4ccc(N(C)C5CCN(C)CC5)cc4)ncc3c2)c(=O)n(Cc2ccc(F)c(F)c2)n1C [IV-54, 2-(3,4-difluorobenzyl)-1,5-dimethyl-N-{(2E)-3-[2-({4-[methyl(1-methylpiperidin-4-yl)amino]phenyl}amino)quinazolin-6-yl]prop-2-en-1-yl}-3-oxo-2,3-dihydro-1H-pyrazole-4-carboxamide] as the compound, how does the remaining activity at 10 µM read?
A: 16.6%

Q: Cc1c(C(=O)NC/C=C/c2ccc3nc(Nc4ccc(NC5CCN(C)CC5)c(F)c4)ncc3c2)c(=O)n(Cc2ccc(F)c(F)c2)n1C [IV-55, 2-(3,4-difluorobenzyl)-N-{(2E)-3-[2-({3-fluoro-4-[(1-methylpiperidin-4-yl)amino]-phenyl}amino)quinazolin-6-yl]prop-2-en-1-yl}-1,5-dimethyl-3-oxo-2,3-dihydro-1H-pyrazole-4-carboxamide] was tested. Which remaining activity at 10 µM did it give?
A: 16.5%

Q: For O=C(NC/C=C/c1ccc2ncncc2c1)c1cncn(Cc2ccc(F)c(F)c2)c1=O [IV-56, 1-(3,4-difluorobenzyl)-6-oxo-N-[(2E)-3-(quinazolin-6-yl)prop-2-en-1-yl]-1,6-dihydropyrimidine-5-carboxamide], which remaining activity at 10 µM is on record?
A: 18.8%

Q: Cc1c(C(=O)NC/C=C/c2ccc3ncncc3c2)c(=O)n(Cc2ccc(F)c(F)c2)n1C [IV-57, 2-(3,4-difluorobenzyl)-1,5-dimethyl-3-oxo-N-[(2E)-3-(quinazolin-6-yl)prop-2-en-1-yl]-2,3-dihydro-1H-pyrazole-4-carboxamide] was tested. Which remaining activity at 10 µM did it give?
A: 35.5%

Q: With Cc1c(C(=O)NCC#Cc2cc3cnc(Nc4ccc(N5CCOCC5)cc4)nc3n(C(C)C)c2=O)c(=O)n(Cc2ccc(F)c(F)c2)n1C [IV-58, 2-(3,4-difluorobenzyl)-1,5-dimethyl-N-{3-[2-{[4-(morpholin-4-yl)phenyl]amino}-7-oxo-8-(propane-2-yl)-7,8-dihydropyrido[2,3-c]pyrimidin-6-yl]prop-2-yn-1-yl}-3-oxo-2,3-dihydro-1H-pyrazole-4-carboxamide] as the compound, how does the remaining activity at 10 µM read?
A: 14.6%

Q: Which remaining activity at 10 µM does the source give for CC(C)n1c(=O)c(C#CCNC(=O)c2cncn(Cc3ccc(F)c(F)c3)c2=O)cc2cnc(Nc3ccc(N4CCOCC4)cc3)nc21 [IV-59, 1-(3,4-difluorobenzyl)-N-{3-[2-{[4-(morpholin-4-yl)phenyl]amino}-7-oxo-8-(propane-2-yl)-7,8-dihydropyrido[2,3-c]pyrimidin-6-yl]prop-2-yn-1-yl}-6-oxo-1,6-dihydropyrimidine-5-carboxamide] here?
A: 12.9%
